These results are taken from patent US20200131669A1, “CYCLIC PEPTIDE COMPOUND HAVING HIGH MEMBRANE PERMEABILITY, AND LIBRARY CONTAINING SAME” (Chugai Seiyaku Kabushiki Kaisha, priority 2017, published 2020).

Starred links: 1 amine or outer side, 2 acyl side, 3 side chain; linkers in the order of their positions; H or OH if unused. Positions of bridges follow the written chain, without caps; N, C: chain ends. Non-standard residues stand in square brackets, D forms with d. Residues, ends and D or L forms follow the SMILES beside them. *: point of attachment. X4 = O=C([C@@H]1C[C@@H](N2CCC(F)(F)CC2)CN1[*:1])[*:2]; Phe(4-CF3) = N[C@@H](Cc1ccc(C(F)(F)F)cc1)C(=O)O; NMePhe(3-Cl) = CN[C@@H](Cc1cccc(Cl)c1)C(=O)O; Tyr(3-F) = N[C@@H](Cc1ccc(O)c(F)c1)C(=O)O; NMeF = CN[C@@H](Cc1ccccc1)C(=O)O; NMeI = CC[C@H](C)[C@H](NC)C(=O)O; NMeD = CN[C@@H](CC(=O)O)C(=O)O; NMeL = CN[C@@H](CC(C)C)C(=O)O; NMeS = CN[C@@H](CO)C(=O)O; NMeA = CN[C@@H](C)C(=O)O; Piperidide = C1CCN(*)CC1; Abu = CC[C@H](N)C(=O)O; Isopentyl = CC(C)CC*; Sar = CNCC(=O)O; tBu = CC(C)(C)*

One series is described as follows: Caco-2 membrane permeability, improved method as used in the following Examples (96-well, 20 to 24 h preincubation). Type of series: in vitro ADME. As to conditions: human, Caco-2, Caco-2. In a few lines:
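Papp (cm/sec) was derived from LC/MS of basal samples collected 180 min after apical dosing in FaSSIF/HBSS pH 6.0 with 1% DMSO, against a basal HBSS pH 7.4 receiver containing 4% BSA. Three-week Caco-2 cultures were first preincubated with compound in DMEM+FaSSIF at 37 °C for 20–24 h.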
On the technique in general: Caco-2 monolayers are a common model of the intestinal barrier.
In the case of `CC(C)C[C@H]1C(=O)N(C)[C@@H](CC(C)C)C(=O)N(C)[C@@H](CC(C)C)C(=O)N(C)[C@@H](Cc2ccccc2)C(=O)N[C@@H]([C@@H](C)O)C(=O)N(C)[C@@H](Cc2ccccc2)C(=O)N(C)[C@@H](CC(C)C)C(=O)N2C[C@H](N3CCC(F)(F)CC3)C[C@H]2C(=O)N[C@H](C(=O)N2CCCCC2)CC(=O)N[C@@H](C(C)C)C(=O)NCC(=O)N1C` [pd460] (VG[NMeL][NMeL][NMeL][NMeF]T[NMeF][NMeL][X4]D-Piperidide; lactam N-11), the apical-to-basolateral permeability (Papp A→B) – broadly, the apparent permeability from the apical to the basolateral side of a cell layer – at 180 min stood at 1.2 ×10⁻⁶ cm/s.
Same read-out and setting: the same measure for `CC[C@@H]1NC(=O)[C@H](Cc2ccccc2)N(C)C(=O)[C@H](COCCC(C)C)N(C)C(=O)[C@H](CC(C)C)NC(=O)[C@H](C)N(C)C(=O)C[C@@H](C(=O)N2CCCCC2)NC(=O)[C@H](CC(C)C)N(C)C(=O)CN(C)C(=O)[C@H]([C@@H](C)O)NC(=O)[C@H](CC(C)C)N(C)C(=O)[C@H](Cc2ccccc2)N(C)C1=O` [pd307] ([NMeA]L[NMeS](Isopentyl)[NMeF][Abu][NMeF][NMeL]T[Sar][NMeL]D-Piperidide; lactam N-11): 2.9 ×10⁻⁶ cm/s.

Still in this series, the particulars now being: human, Caco-2, Caco-2 (cm/sec).
Consider `CC[C@H](C)[C@H]1C(=O)N[C@@H]([C@@H](C)O)C(=O)N(C)CC(=O)N(C)[C@@H](CC(C)C)C(=O)N[C@H](C(=O)N2CCCCC2)CC(=O)N(C)[C@@H](C)C(=O)N[C@@H](CC(C)C)C(=O)N(C)[C@@H](CC(C)C)C(=O)N(C)[C@@H](CC(C)C)C(=O)N[C@@H](Cc2ccc(C(F)(F)F)cc2)C(=O)N(C)[C@@H](C)C(=O)N1C` [pd142] ([NMeA]L[NMeL][NMeL][Phe(4-CF3)][NMeA][NMeI]T[Sar][NMeL]D-Piperidide; lactam N-11), for which the Papp A→B at 180 min came out at 2.9 ×10⁻⁶ cm/s.
Same read-out and setting: in the case of `CC(C)C[C@@H]1NC(=O)[C@H](C)N(C)C(=O)C[C@@H](C(=O)N2CCCCC2)NC(=O)[C@H](CC(C)C)N(C)C(=O)CN(C)C(=O)[C@H](Cc2ccc(O)c(F)c2)NC(=O)[C@H](CC(C)C)N(C)C(=O)[C@H](C)N(C)C(=O)[C@H](C)NC(=O)[C@H](Cc2ccccc2)N(C)C(=O)[C@H](CC(C)C)N(C)C1=O` [pd120] ([NMeA]L[NMeL][NMeF]A[NMeA][NMeL][Tyr(3-F)][Sar][NMeL]D-Piperidide; lactam N-11) it was 0.23 ×10⁻⁶ cm/s; in that of `CC(C)C[C@@H]1NC(=O)[C@H](Cc2ccccc2)N(C)C(=O)[C@H](C)NC(=O)C[C@@H](C(=O)N2CCCCC2)N(C)C(=O)[C@H](Cc2ccccc2)N(C)C(=O)[C@H](Cc2ccccc2)N(C)C(=O)[C@H](COC(C)(C)C)NC(=O)[C@H](CC(C)C)N(C)C(=O)CN(C)C(=O)[C@H]([C@@H](C)O)NC(=O)[C@H](CC(C)C)N(C)C1=O` [pd209] (A[NMeF]L[NMeL]T[Sar][NMeL]S(tBu)[NMeF][NMeF][NMeD]-Piperidide; lactam N-11), 1.7 ×10⁻⁶ cm/s; in that of `CC(C)C[C@@H]1NC(=O)[C@H](C)N(C)C(=O)C[C@@H](C(=O)N2CCCCC2)NC(=O)[C@H](CC(C)C)N(C)C(=O)CN(C)C(=O)[C@H]([C@@H](C)O)NC(=O)[C@H](CC(C)C)N(C)C(=O)[C@H](Cc2cccc(Cl)c2)N(C)C(=O)[C@H](C)NC(=O)[C@H](Cc2ccccc2)N(C)C(=O)[C@H](CC(C)C)N(C)C1=O` [pd161] ([NMeA]L[NMeL][NMeF]A[NMePhe(3-Cl)][NMeL]T[Sar][NMeL]D-Piperidide; lactam N-11), 1.4 ×10⁻⁶ cm/s.
`CC(C)C[C@@H]1NC(=O)[C@H](CC(C)C)N(C)C(=O)[C@H](C)N(C)C(=O)C[C@@H](C(=O)N(C)[C@@H](Cc2ccccc2)C(=O)N[C@@H](C)C(=O)N2CCCCC2)NC(=O)[C@H]([C@@H](C)O)NC(=O)[C@H](CC(C)C)N(C)C(=O)[C@H](Cc2ccccc2)NC(=O)[C@H](Cc2ccccc2)N(C)C(=O)[C@H](CC(C)C)N(C)C1=O` [pd218] ([NMeA][NMeL]L[NMeL][NMeF]F[NMeL]TD[NMeF]A-Piperidide; lactam N-9) showed an apical-to-basolateral permeability (Papp A→B) at 180 min of 1.1 ×10⁻⁶ cm/s.
